Test results reported in PubChem BioAssay AID850 (SRMLSC, 2007).
The source made the active and inactive calls. How the calls were made is not given here.

Columns and labels:
[1] = concentration-response yeast growth inhibition under permissive conditions, counter-assay for yeast lifespan-shortening chemical project (AID 850); conditions: Saccharomyces cerevisiae growth inhibition, permissive control, measured here: maximum growth inhibition, stronger effect = higher value;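 further: growth read as optical density after one day of incubation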
[2] = tested on: Saccharomyces cerevisiae growth inhibition, permissive control; test: as above

Compound	inhibition ([1]; at 50 µM) [%]	IC50 [2]	also measured
C/C(=N\Nc1ccc(Cl)c(Cl)c1)c1ccc(-n2ccnc2)cc1	96.7	26.7 µM	–
CCC(C)/C(C)=N/NC(=O)c1ccc(COc2ccc(Cl)c(C)c2)cc1 (configuration not stated)	83.8	27 µM	–
COc1ccc(-c2cc3nc(C)cc(N4CC(C)CC(C)C4)n3n2)cc1 (configuration not stated)	48.3	50.7 µM	–
O=C(/C=C/c1ccccc1)c1cc(Br)ccc(=O)c1O	98.8	12.2 µM	–
c1ccc2c(c1)nnn1c3ccccc3nc21	–	> 100 µM (inactive)	inhibition ([1]; at 3.125 µM): 14.6%
O=c1cnn([C@@H]2O[C@H](CO)[C@@H](O)[C@H]2O)c(=O)[nH]1	68.7	16.6 µM	–
CC(=O)NC(c1cccs1)c1cc([N+](=O)[O-])c2cccnc2c1O (configuration not stated)	17.1	> 100 µM (inactive)	–
Cc1ccc(CNC(=O)CS(=O)Cc2nc(-c3cccs3)oc2C)cc1 (configuration not stated)	–	> 100 µM (inactive)	inhibition ([1]; at 0.391 µM): 13.8%
O=C1CCN2C=Nc3cccc4ccc1c2c34	–	> 100 µM (inactive)	inhibition ([1]; at 25 µM): 26%
Cc1cc(C(=O)COC(=O)c2ccc[nH]c2=O)c(C)n1-c1ccc(Br)cc1	4.13	> 100 µM (inactive)	–
CCCCN=C(NNc1ccc(Br)cc1)C(=O)OCC	97.9	5.51 µM	–
Oc1c(N=Nc2ccccn2)ccc2ccccc12	–	11.5 µM	inhibition ([1]; at 25 µM): 98.2%
CCCC1COC(Cn2cncn2)(c2ccc(Cl)cc2Cl)O1 (configuration not stated)	–	0.184 µM	inhibition ([1]; at 3.125 µM): 97.3%
O=C(CC(=O)c1ccccc1O)c1ccc(F)cc1	–	30.1 µM	inhibition ([1]; at 25 µM): 37%
CCCn1c(C)cc(C(=O)COC(=O)c2ccc[nH]c2=O)c1C	17.4	> 100 µM (inactive)	–
O=S(=O)(/N=C(\Sc1ccc(Cl)cc1)c1ccccc1)c1ccccc1	74	33.3 µM	–
CC(C)(Oc1ccc(Cl)cc1)C(=O)NC1=NN(c2ccccc2)C(=O)C1	88.3	21.5 µM	–
Cn1c(=O)c(C(=O)Nc2ncccn2)c(O)c2ccccc21	56.6	49.9 µM	–
CCOC(=O)C(=NCCCN(C)C)NNc1ccc(Br)cc1	97.4	5.8 µM	–
CCN1/C(=C/c2ccc3cccc(C)c3[n+]2CC)Sc2ccccc21	99.4	8.03 µM	–
Cc1ccc(-n2c(C)cc(C(=O)COC(=O)c3ccc[nH]c3=O)c2C)cc1	67	27.7 µM	–

Compound	inhibition ([1]; at 50 µM) [%]	IC50 [2]	also measured
Cn1c(-c2ccco2)nc2cc3ccccc3cc21	52.4	49.4 µM	–
CCCS(=O)(=O)c1nnnn1-c1cccc(OC)c1	99	5.29 µM	–
CC1CCCCN1S(=O)(=O)c1coc(C(N)=O)c1 (configuration not stated)	–	> 100 µM (inactive)	inhibition ([1]; at 3.125 µM): 3.72%
N#C/C(=C/c1cn(-c2ccccc2)nc1-c1cccc(OCc2ccc(F)cc2)c1)C(=O)NCCCn1ccnc1	–	> 100 µM (inactive)	inhibition ([1]; at 0.391 µM): 4.5%
Nc1nonc1C(=O)NCCN=Cc1cc(Cc2ccccc2)cc(Br)c1O	22.4	> 100 µM (inactive)	–
CCOC(=O)c1ccc(-n2[nH]c(-c3ccccc3)cc2=O)cc1	–	47.7 µM	inhibition ([1]; at 12.5 µM): 47.7%
COc1ccc(S(=O)(=O)n2oc(=O)cc2-c2ccccc2)cc1OC	–	> 100 µM (inactive)	inhibition ([1]; at 1.563 µM): 9.27%
O=c1cc(-c2ccccc2)n(S(=O)(=O)c2ccccc2)o1	–	> 100 µM (inactive)	inhibition ([1]; at 0.195 µM): 2.71%
Cc1cccc(C(=O)O/N=C/c2c(N3CCOCC3)n(C)c3ccccc23)c1	48.1	50.1 µM	–
C=C(C)COc1ccc(-c2[nH]ncc2Oc2ccccc2OC)c(O)c1	–	> 100 µM (inactive)	inhibition ([1]; at 1.563 µM): -1.35%
CCN(CC)c1ccc(S(=O)(=O)N2CCOCC2)cc1NC(=O)CSc1cccc[n+]1[O-]	96.5	25.3 µM	–
Cc1cccc(C(=O)NC(=S)NNC(=O)c2cccs2)c1	76	19.9 µM	–
O=C(O)c1cc2c(s1)-c1ccccc1OC2	–	> 100 µM (inactive)	inhibition ([1]; at 0.195 µM): 15.9%
COC(=O)CSCc1nc2ccccc2[nH]c1=O	–	> 100 µM (inactive)	inhibition ([1]; at 1.563 µM): 20.2%
c1ccc(-c2ccc(OCCCn3cncn3)cc2)cc1	–	34.1 µM	inhibition ([1]; at 25 µM): 57.7%
O=C1NC(c2ccccn2)Nc2sc3c(c21)CCC3 (configuration not stated)	–	> 100 µM (inactive)	inhibition ([1]; at 0.195 µM): 25.5%
N#C/C(=C\c1ccc([N+](=O)[O-])o1)c1nc2ccccc2[nH]1	–	> 100 µM (inactive)	inhibition ([1]; at 6.25 µM): 21.4%
Cn1cccc1C(=O)NC(=O)CSc1cccc[n+]1[O-]	97.5	24.3 µM	–
COC(=O)Cn1c2ccccc2c2nc(C)sc21	–	> 100 µM (inactive)	inhibition ([1]; at 6.25 µM): 28.7%
O=S(=O)(Cc1ccccc1)NCc1cccnc1	–	> 100 µM (inactive)	inhibition ([1]; at 12.5 µM): 28.2%
COCC(C)OC(=O)/C(C#N)=C\c1coc2ccc(C)cc2c1=O (configuration not stated)	16.6	> 100 µM (inactive)	–

Compound	inhibition ([1]; at 50 µM) [%]	IC50 [2]	also measured
O=C(CC(O)(C(F)(F)F)C(F)(F)F)Nc1ccc(Cl)c(Cl)c1	92.8	19.2 µM	–
CCOC(=O)C1CCCCN1C(=O)CCc1c(C)nc2cc(-c3ccccc3)nn2c1C (configuration not stated)	–	> 100 µM (inactive)	inhibition ([1]; at 25 µM): 21.6%
Nc1ccc(C(=O)OCC(=O)Nc2ccc3c(c2)OCO3)cc1[N+](=O)[O-]	–	> 100 µM (inactive)	inhibition ([1]; at 0.391 µM): 17.2%
CC1=CC(=O)c2ccccc2C1=O	88.6	17.7 µM	–
C=CCNC(=S)N/N=C(\C)c1ccccn1	99.4	13.8 µM	–
O=c1[nH]c2ccccc2c2nc3ccccn3c12	–	> 100 µM (inactive)	inhibition ([1]; at 25 µM): 18.1%
c1ccc(-c2nc3nonc3nc2-c2ccccc2)cc1	–	> 100 µM (inactive)	inhibition ([1]; at 1.563 µM): -1.92%
O=c1c2ccccc2nc2c3ccccc3c3nncn3n12	–	> 100 µM (inactive)	inhibition ([1]; at 6.25 µM): 5.16%
Cc1ccc(/C(N)=N/OC(=O)c2ccc(Cl)cc2Cl)cc1	98.8	19.8 µM	–
Cc1ccc(OC(=S)Nc2ccc(O)cc2)cc1	99.6	16.3 µM	–
CCn1c(=O)c(C(=O)Nc2nc3ccccc3[nH]2)c(O)c2ccccc21	–	> 100 µM (inactive)	inhibition ([1]; at 0.781 µM): 24.2%
N/C(Cc1ccc(Cl)cc1)=N\OC(=O)C1CCCCC1	98.8	15.8 µM	–
Cc1cccc(/C=C/C(=O)c2cc(Br)ccc(=O)c2O)c1	83.2	12.2 µM	–
O=C(/C(=N/N=C/c1ccc(O)c(O)c1O)c1ccccc1)c1ccccc1	–	> 100 µM (inactive)	inhibition ([1]; at 0.781 µM): 5.74%
CC(NC(=O)Nc1ccc(Cl)cc1)C(c1cccs1)N1CCOCC1 (configuration not stated)	–	> 100 µM (inactive)	inhibition ([1]; at 0.781 µM): 8.7%
CCOCCCNC(=O)c1ccc(Br)cc1	–	> 100 µM (inactive)	inhibition ([1]; at 1.563 µM): 27.6%
Oc1cccc(/C=N/NC(=S)Nc2cccnc2)c1O	–	> 100 µM (inactive)	inhibition ([1]; at 0.781 µM): 7.13%
CCOC(=O)c1sc(=S)n(-c2cc(F)ccc2F)c1N	–	> 100 µM (inactive)	inhibition ([1]; at 25 µM): 29.2%
CCc1cccc(C)c1NC(=S)NCCc1c(C)[nH]c2ccc(C)cc12	8.58	> 100 µM (inactive)	–
CC1(C)CC(=NOC(=O)c2ccccc2)CC(C)(C)N1O	98.6	14 µM	–
O=Cc1c(Sc2ccccc2)nc2ccccn2c1=O	–	> 100 µM (inactive)	inhibition ([1]; at 12.5 µM): 2.01%

Compound	inhibition ([1]; at 50 µM) [%]	IC50 [2]	also measured
COc1ccc(OCc2nnc3n2N=C(c2ccc(OC)cc2)CS3)cc1	–	> 100 µM (inactive)	inhibition ([1]; at 0.781 µM): 20.9%
CCOc1cc(N2CCOCC2)c(OCC)cc1NC(=O)COc1cccc2cccnc12	–	> 100 µM (inactive)	inhibition ([1]; at 0.098 µM): 11.3%
CN(C)c1ccc(/C=C/c2ccc3ccccc3[n+]2C)cc1	85.8	22.3 µM	–
CC(C)(C)C(=O)O/N=C1/C(=O)N(c2ccccc2)c2ccccc21	–	42.9 µM	inhibition ([1]; at 25 µM): 52.3%
CCOC(=O)c1cnc(-n2nc(C)cc2C)nc1NCCc1ccccc1	17.4	> 100 µM (inactive)	–
CCCCc1ccc(NC(=S)Nc2ccc(Nc3ccc(OC)cc3)cc2)cc1	16.8	> 100 µM (inactive)	–
O=C(O)CSc1nc(-c2ccc(Cl)cc2)nc2c1oc1ccccc12	86.6	32.1 µM	–
C(=C\c1nc(N2CCCCCC2)c2ccccc2n1)/c1ccccc1	78.2	39.2 µM	–
O=C1C=C(c2ccccc2)C(=O)N1Nc1ccccc1	85.8	23.6 µM	–
Cc1ccc(C(=O)c2c(C)oc3c2C(=O)C(=O)c2ccccc2-3)cc1	95.5	43.6 µM	–
COc1ccc(OC)c(CCNC(=O)Cn2sc3nc(C)cc(C)c3c2=O)c1	–	> 100 µM (inactive)	inhibition ([1]; at 0.391 µM): 13%
C/C(O)=c1/ccc2cccc3nc(C)nc1c23	–	> 100 µM (inactive)	inhibition ([1]; at 25 µM): 24.2%
COc1cccc2sc(Nc3nc(-c4ccccn4)cs3)nc12	77.8	20 µM	–
COc1cccc2c(=O)c3c(cnn3C)n(C)c12	–	> 100 µM (inactive)	inhibition ([1]; at 25 µM): 21.2%
CC(=O)N1c2ccccc2C2(O)N=C(C)SC12 (configuration not stated)	16	> 100 µM (inactive)	–
O=C1C(=O)c2c(C(=O)c3ccccc3)coc2-c2ccccc21	99.6	10.3 µM	–
CCc1cccc2c(C(=O)COC(=O)c3ccc([N+](=O)[O-])s3)c[nH]c12	99.4	28 µM	–
Oc1ccc(COCc2ccccc2)c2cccnc12	99.4	6.07 µM	–
